Tests used:
Experiment in all cases: KiNativ profiling in human PBMCs
Format in all cases: binding
Wnk1,Wnk2 = settings: ATP Loop
Description: (§1) Compounds were shipped to ActivX Technologies (San Diego, US) where LRRK2 target engagement and broad kinase profiling was performed using KiNativ™ procedures. Live cell treatment of human peripheral blood mononuclear cells (PBMCs) at two compound concentrations (1 µM and 0.1 µM) were used to evaluate and compare in vitro target engagement and kinase selectivity, respectively (see Supplementary File 1).

p70S6K = test system: T1, p70S6K; settings: Lys2
T1 construct: purchased ActivX Technologies (KiNativ)
Description: as §1

IRAK3 = test system: T2, IRAK3; settings: Lys1
T2 construct: purchased ActivX Technologies (KiNativ)
Description: as §1

STLK6 = test system: T3, STLK6
T3 construct: purchased ActivX Technologies (KiNativ)
Description: as §1

FES = test system: T4, FES; settings: Lys1
T4 construct: purchased ActivX Technologies (KiNativ)
Description: as §1

RSKL1 domain1 = test system: T5, RSKL1 domain1; settings: ATP
T5 construct: RSKL1 domain1; purchased ActivX Technologies (KiNativ)
Description: as §1

MST3 = test system: T6, MST3
T6 construct: purchased ActivX Technologies (KiNativ)
Description: as §1

SMG1 = test system: T7, SMG1; settings: ATP
T7 construct: purchased ActivX Technologies (KiNativ)
Description: as §1

CaMK4 = test system: T8, CaMK4
T8 construct: purchased ActivX Technologies (KiNativ)
Description: as §1

IRE1 = test system: T9, IRE1; settings: Lys2
T9 construct: purchased ActivX Technologies (KiNativ)
Description: as §1

CaMK2g = test system: T10, CaMK2g; settings: Lys1
T10 construct: purchased ActivX Technologies (KiNativ)
Description: as §1

KHS1 = test system: T11, KHS1; settings: Lys1
T11 construct: purchased ActivX Technologies (KiNativ)
Description: as §1

MAP2K3 = test system: T12, MAP2K3
T12 construct: purchased ActivX Technologies (KiNativ)
Description: as §1

PKR = test system: T13, PKR
T13 construct: purchased ActivX Technologies (KiNativ)
Description: as §1

CDK7 = test system: T14, CDK7; settings: Lys2
T14 construct: purchased ActivX Technologies (KiNativ)
Description: as §1

PKCa,PKCb = settings: Lys2
Description: as §1

PKD2 = test system: T15, PKD2; settings: Lys1
T15 construct: purchased ActivX Technologies (KiNativ)
Description: as §1

PCTAIRE2 = test system: T16, PCTAIRE2; settings: Lys2
T16 construct: purchased ActivX Technologies (KiNativ)
Description: as §1

PIK3C3 = test system: T17, PIK3C3; settings: ATP
T17 construct: purchased ActivX Technologies (KiNativ)
Description: as §1

SLK = test system: T18, SLK
T18 construct: purchased ActivX Technologies (KiNativ)
Description: as §1

[1] = test system: CaMK2a,CaMK2b,CaMK2d,CaMK2g; settings: Lys2
Description: as §1

SGK3 = test system: T19, SGK3
T19 construct: purchased ActivX Technologies (KiNativ)
Description: as §1

QSK = test system: T20, QSK; settings: Lys1
T20 construct: purchased ActivX Technologies (KiNativ)
Description: as §1

JNK1,JNK2,JNK3 = settings: Lys2
Description: as §1

eEF2K = test system: T21, eEF2K; settings: ATP
T21 construct: purchased ActivX Technologies (KiNativ)
Description: as §1

MAP3K2,MAP3K3 = settings: Lys2
Description: as §1

MLK3 = test system: T22, MLK3
T22 construct: purchased ActivX Technologies (KiNativ)
Description: as §1

TAO2 = test system: T23, TAO2; settings: Lys2
T23 construct: purchased ActivX Technologies (KiNativ)
Description: as §1

ULK3 = test system: T24, ULK3
T24 construct: purchased ActivX Technologies (KiNativ)
Description: as §1

IKKe,TBK1 = settings: Lys2
Description: as §1

PCTAIRE1,PCTAIRE3 = settings: Lys2
Description: as §1

CaMK1d = test system: T25, CaMK1d
T25 construct: purchased ActivX Technologies (KiNativ)
Description: as §1

AKT1 = test system: T26, AKT1; settings: ATP Loop
T26 construct: purchased ActivX Technologies (KiNativ)
Description: as §1

OSR1 = test system: T27, OSR1; settings: Lys2
T27 construct: purchased ActivX Technologies (KiNativ)
Description: as §1

YANK3 = test system: T28, YANK3; settings: Lys2
T28 construct: purchased ActivX Technologies (KiNativ)
Description: as §1

TLK1 = test system: T29, TLK1
T29 construct: purchased ActivX Technologies (KiNativ)
Description: as §1

## Cn1cc(-c2c[nH]c3ncnc(N4CCOCC4)c23)cc1C#N [PFE-360]
Wnk1,Wnk2; 0.1µM
  % Inhibition: -5.4%
Wnk1,Wnk2; 1µM
  % Inhibition: -15.3%
p70S6K; 0.1µM
  % Inhibition: -16.9%
p70S6K; 1µM
  % Inhibition: 8.5%
IRAK3; 0.1µM
  % Inhibition: -1.2%
IRAK3; 1µM
  % Inhibition: 3%
STLK6; 0.1µM, Lys1
  % Inhibition: -3.3%
STLK6; 0.1µM, Lys2
  % Inhibition: 11.8%
STLK6; 1µM, Lys1
  % Inhibition: -20.6%
STLK6; 1µM, Lys2
  % Inhibition: -10.2%
FES; 0.1µM
  % Inhibition: -0.3%
FES; 1µM
  % Inhibition: -5.7%
RSKL1 domain1; 0.1µM
  % Inhibition: -38%
RSKL1 domain1; 1µM
  % Inhibition: 7.3%
MST3; 0.1µM, Lys1
  % Inhibition: -15.8%
MST3; 0.1µM, Lys2
  % Inhibition: -6.1%
MST3; 1µM, Lys1
  % Inhibition: -21.2%
MST3; 1µM, Lys2
  % Inhibition: -16.2%
SMG1; 0.1µM, peptide DTVTIHSVGGTITILPTKTKPK
  % Inhibition: -4.6%
SMG1; 0.1µM, peptide SYPYLFKGLEDLHLDER
  % Inhibition: 7%
SMG1; 1µM, peptide DTVTIHSVGGTITILPTKTKPK
  % Inhibition: -3%
SMG1; 1µM, peptide SYPYLFKGLEDLHLDER
  % Inhibition: -11.6%
CaMK4; 0.1µM, Lys1
  % Inhibition: -10.2%
CaMK4; 0.1µM, Lys2
  % Inhibition: 15%
CaMK4; 1µM, Lys1
  % Inhibition: -8.5%
CaMK4; 1µM, Lys2
  % Inhibition: 9.5%
IRE1; 0.1µM
  % Inhibition: -14.5%
IRE1; 1µM
  % Inhibition: 10.8%
CaMK2g; 0.1µM
  % Inhibition: 11.1%
CaMK2g; 1µM
  % Inhibition: 9.2%
KHS1; 0.1µM
  % Inhibition: 1.1%
KHS1; 1µM
  % Inhibition: -9.3%
MAP2K3; 0.1µM, Lys1
  % Inhibition: -7.9%
MAP2K3; 0.1µM, Lys2
  % Inhibition: 9.4%
MAP2K3; 1µM, Lys1
  % Inhibition: 11.1%
MAP2K3; 1µM, Lys2
  % Inhibition: -11.7%
PKR; 0.1µM, Activation Loop
  % Inhibition: -1.7%
PKR; 0.1µM, Lys2
  % Inhibition: -0.1%
PKR; 1µM, Activation Loop
  % Inhibition: -6.6%
PKR; 1µM, Lys2
  % Inhibition: -9.3%
CDK7; 0.1µM
  % Inhibition: 5%
CDK7; 1µM
  % Inhibition: -4.6%
PKCa,PKCb; 0.1µM
  % Inhibition: -32.8%
PKCa,PKCb; 1µM
  % Inhibition: -10.6%
PKD2; 0.1µM
  % Inhibition: 3.7%
PKD2; 1µM
  % Inhibition: -5.1%
PCTAIRE2; 0.1µM
  % Inhibition: -2.4%
PCTAIRE2; 1µM
  % Inhibition: -5.2%
PIK3C3; 0.1µM, peptide TEDGGKYPVIFKHGDDLR
  % Inhibition: -2.7%
PIK3C3; 0.1µM, peptide TEDGGKYPVIFKHGDDLRQDQLILQIISLMDK
  % Inhibition: -22.4%
PIK3C3; 1µM, peptide TEDGGKYPVIFKHGDDLR
  % Inhibition: -7.9%
PIK3C3; 1µM, peptide TEDGGKYPVIFKHGDDLRQDQLILQIISLMDK
  % Inhibition: -43.1%
SLK; 0.1µM, Lys1
  % Inhibition: 3.8%
SLK; 0.1µM, Lys2
  % Inhibition: 4.8%
SLK; 1µM, Lys1
  % Inhibition: 22.3%
SLK; 1µM, Lys2
  % Inhibition: -8.4%
[1]; 0.1µM
  % Inhibition: 6.1%
[1]; 1µM
  % Inhibition: 1.2%
SGK3; 0.1µM, Lys1
  % Inhibition: 8.9%
SGK3; 0.1µM, Lys2
  % Inhibition: -21.8%
SGK3; 1µM, Lys1
  % Inhibition: 5.1%
SGK3; 1µM, Lys2
  % Inhibition: -10.5%
QSK; 0.1µM
  % Inhibition: -13%
QSK; 1µM
  % Inhibition: -12.1%
JNK1,JNK2,JNK3; 0.1µM
  % Inhibition: 2.1%
JNK1,JNK2,JNK3; 1µM
  % Inhibition: -12%
eEF2K; 0.1µM
  % Inhibition: 15.7%
eEF2K; 1µM
  % Inhibition: -1.8%
MAP3K2,MAP3K3; 0.1µM
  % Inhibition: -2.6%
MAP3K2,MAP3K3; 1µM
  % Inhibition: -12.9%
MLK3; 0.1µM, Lys1
  % Inhibition: 5%
MLK3; 0.1µM, Lys2
  % Inhibition: -4.6%
MLK3; 1µM, Lys1
  % Inhibition: -5.6%
MLK3; 1µM, Lys2
  % Inhibition: 10.2%
TAO2; 0.1µM
  % Inhibition: 1.1%
TAO2; 1µM
  % Inhibition: -26.1%
ULK3; 0.1µM, Lys1
  % Inhibition: 1%
ULK3; 0.1µM, Lys2
  % Inhibition: -2.5%
ULK3; 1µM, Lys1
  % Inhibition: -3%
ULK3; 1µM, Lys2
  % Inhibition: 0.6%
IKKe,TBK1; 0.1µM
  % Inhibition: -25.5%
IKKe,TBK1; 1µM
  % Inhibition: 16%
PCTAIRE1,PCTAIRE3; 0.1µM
  % Inhibition: 1.3%
PCTAIRE1,PCTAIRE3; 1µM
  % Inhibition: 11.4%
CaMK1d; 0.1µM, Lys1
  % Inhibition: 8%
CaMK1d; 0.1µM, Lys2
  % Inhibition: 6.4%
CaMK1d; 1µM, Lys1
  % Inhibition: -1.5%
CaMK1d; 1µM, Lys2
  % Inhibition: 20.2%
AKT1; 0.1µM
  % Inhibition: -6.3%
AKT1; 1µM
  % Inhibition: -3.2%
OSR1; 0.1µM
  % Inhibition: -20.9%
OSR1; 1µM
  % Inhibition: -5.1%
YANK3; 0.1µM
  % Inhibition: 8.2%
YANK3; 1µM
  % Inhibition: 13.5%
TLK1; 0.1µM, Lys1
  % Inhibition: -0.5%
TLK1; 0.1µM, Lys2
  % Inhibition: 0%
TLK1; 1µM, Lys1
  % Inhibition: 3.9%
TLK1; 1µM, Lys2
  % Inhibition: -13.2%

— paper PMC5578959, “Selective LRRK2 kinase inhibition reduces phosphorylation of endogenous Rab10 and Rab12 in human peripheral mononuclear blood cells” (Scientific Reports, 2017)
